According to EP3952873B1 (priority 2019, dated 2020):
“Also recorded” adds a separate entry of the source.

Assays:
LAT-1 [1] = molecular target: T1, LAT-1 (Homo sapiens, UniProt Q01650); assay: LAT-1 [3H]leucine uptake in HEK293T cells; type: cell-based; details: HEK293T cells endogenously expressing LAT-1
T1 construct: endogenous in cells; host or cells: HEK293T
Source text: (§1) To test selected prodrugs for substrate activity at LAT-1, we characterised the uptake and efflux of [^3H]leucine in the presence of compounds. For this purpose we used HEK293T cells endogenously expressing a functionally competent LAT-1, and performed assays according to Chien et al., 2018 to measure A) uptake and B) relative exchange efflux rate (L-leucine as control).

[2] = test system: GHB binding sites i.e. CaMK2a; details: previously published; cited from earlier work
[3] = molecular target: T2, GHB high-affinity binding site/CaMK2a (Rattus norvegicus, UniProt P11275); assay: Rat brain membrane [3H]NCS-382 binding assay; details: for Ki: 16 nM [3H]NCS-382, rat cortical synaptic membranes, pH 6.0, 0-4 °C
T2 construct: rat (Sprague-Dawley) cortical synaptic membranes (P2 synaptosomes) were prepared; from tissue; host or cells: rat (Sprague-Dawley) cortical synaptic membranes (P2 synaptosomes)
Experimental: According to previously published protocols, rat (Sprague-Dawley) cortical synaptic membranes (P2 synaptosomes) were prepared and stored at -20 °C until the day of assay (Wellendorph et al., 2005). Membranes were then washed three times with binding buffer (50 mM potassium phosphate buffer pH 6.0). The binding protocol was performed in 96-well microplates. In brief, compounds were incubated with 16 nM [^3H]NCS-382 radioligand and membranes for 60 min at 0-4 °C, filtered through GF/C filter plates (PerkinElmer) using a 96-well harvester (Packard), rapidly washed three times with ice-cold binding buffer, and filter plates dried. CPM values were determined using liquid scintillation counting in a TopCount NXT Microplate Scintillation & Luminescence Counter (PerkinElmer). Curves were generated using non-linear regression (GraphPad Prism 7, GraphPad Prism Software, San Diego, CA, USA).
JON-11, related analogues, and pro-JON-11(10) were tested in the [^3H]NCS-382 binding assay (Wellendorph et al., 2005).

[4] = type: in vitro ADME, mouse; details: plasma and liver microsomes; converted to parent JON-11 instantly
Experimental: (§2) Metabolic stability analysis was performed on a Bruker Avance Ultra High Performance Liquid Chromatography (UHPLC) (Bruker Daltonik, Bremen, Germany) equipped with a CTC-PAL-xt autosampler with cooled sample compartments (10 °C) and a column oven held at 40 °C. The UHPLC eluate was directed to a Bruker Evoq Elite triple quad-ropole MS equipped with a heated electrospray ionization source operated in positive ionization mode. Separation of 15 µL sample was obtained using a Phenomenex (Phenomenex, Torrance, CA, USA) Kinetex XB-C18 column (50 mm × 2.1 mm i.d., 1.7 µm particle size) equipped with a guard column. The analytes were separated using a solvent system consisting of water/acetonitrile (95:5, v/v) (eluent A) and water/acetonitrile (5:95, v/v) (eluent B); both acidified with 0.1% formic acid. The eluent flow rate was maintained at 0.4 mL/min with the following gradient elution profile: 0 min: 0% B; 5 min: 100% B; 6 min: 100% B, followed by three min equilibration at 0% B. Two ion transitions were monitored for all analytes and internal standard.
The mouse liver microsome assay was performed by transferring 25 µL of a 20 µM solution of the test compound (0.5% DMSO), dissolved in potassium phosphate monobasic buffer (pH 7.4) containing 3 mM MgCl2, to 9 wells in a microtiter plate. To each well, […] of a 0.5 mg/mL mouse liver (Sigma Aldrich) in buffer was added, and the microtiter plate were pre-incubated for 5 min at 37 °C in a plate shaker at 600 rpm. After pre-incubation, 50 µL 37 °C NADPH regenerating system, consisting of 2 mM NADP+, 10mM glucose-6-phosphate, and 2 U/mL glucose-6-phosphate dehydrogenase dissolved in buffer, was added to start the assay. In triplicates, immediately after adding the NADPH solution, 75 µL was transferred to an Eppendorf tube, containing […] ice-cold acetonitrile with 400 ng/mL internal standard (7). Similarly, samples were prepared after 30 min and 60 min incubation at 37 °C. The samples were vortexed for 30 seconds and centrifuged at 16,000 × g for 10 minutes before analyzing the supernatant. The individual analyte responses were normalized to the internal standard. Diazepam was used as positive control.
The mouse […] assay was performed by transferring 75 µL of a 10 µM solution of the test compound (0.5% DMSO), dissolved in PBS buffer (pH 7.4), to 9 wells in a microtiter plate. To each well, 75 µL mouse plasma, harvested from in-house mice into K2-EDTA tubes and centrifuged at 1,600 × g, was added. […]
(§3) The metabolic stabilities of JON-11 and the prodrugs 1a, 8-12, 19 and 20 were determined in vitro in rat plasma and rat liver microsomes. […] The corresponding loss of prodrug compounds and formation of parent drug JON-11 was determined by UHPLC-MS.

in vivo = assay: in vivo; design: species or system mice; details: C57BL/6JRj, mouse, ip, male mice, dose 10 mg/kg i.p., 30 min, read-out: B/P ratio
Experimental: To evaluate the ability of pro-JON-11 (10) and JON-11 to penetrate the blood-brain barrier, a brain-to-plasma distribution ratio (B/P ratio) was obtained. All subjects were male C57BL/6JRj mice (24-26 g, Janvier Labs, France) housed in groups of three-four with ad libitum access to food and water. The mice were maintained under diurnal conditions (12-h light/dark cycle with lights on at 7 AM) in a temperature (22±1 °C) and humidity-controlled room (50±10%). Ethical permission for the procedures used in this in vivo study was granted by the Danish Animal Experiments Inspectorate.
Compounds were dissolved in PEG-400 (Sigma) at 20% of the final required volume. The final volume was then made up by 10% (w/v) hydroxypropyl-beta-cyclodextrin (Sigma Aldrich) in sterile saline. The solution was sonicated for 5 min. The JON-11 solution was pH-adjusted to 7.4 with 0.2% 2M NaOH.
Both compounds were injected i.p. at a dose of 10 mg/kg (n=3 for each compound). […] After 30 min, the animals were sacrificed by decapitation, trunk blood was collected in EDTA-coated tubes and the brain was gently removed. Blood and tissues were temporarily stored on ice until plasma and brain homogenate preparation. Blood plasma was separated from cells by centrifugation for 10 min at 1,500 x g at 4 °C and plasma harvested. […]
Plasma and brain exposure of JON-11 and pro-JON-11 were evaluated in male mice. […]

[5] = type: in vitro ADME, mouse; details: rat liver microsomes as printed
Experimental: as §2, with “standard. […]” for “standard.”
as §3

[6] = Mouse plasma assay (metabolic stability); type: in vitro ADME; details: rat plasma as printed
Experimental: as §2, with “standard. […]” for “standard.”
as §3

LAT-1 [7] = molecular target: T1, LAT-1; assay: LAT-1 relative exchange efflux of [3H]leucine in HEK293T cells; type: cell-based; details: HEK293T cells endogenously expressing LAT-1
Source text: as §1

T1 sequence (Q01650 whole entry): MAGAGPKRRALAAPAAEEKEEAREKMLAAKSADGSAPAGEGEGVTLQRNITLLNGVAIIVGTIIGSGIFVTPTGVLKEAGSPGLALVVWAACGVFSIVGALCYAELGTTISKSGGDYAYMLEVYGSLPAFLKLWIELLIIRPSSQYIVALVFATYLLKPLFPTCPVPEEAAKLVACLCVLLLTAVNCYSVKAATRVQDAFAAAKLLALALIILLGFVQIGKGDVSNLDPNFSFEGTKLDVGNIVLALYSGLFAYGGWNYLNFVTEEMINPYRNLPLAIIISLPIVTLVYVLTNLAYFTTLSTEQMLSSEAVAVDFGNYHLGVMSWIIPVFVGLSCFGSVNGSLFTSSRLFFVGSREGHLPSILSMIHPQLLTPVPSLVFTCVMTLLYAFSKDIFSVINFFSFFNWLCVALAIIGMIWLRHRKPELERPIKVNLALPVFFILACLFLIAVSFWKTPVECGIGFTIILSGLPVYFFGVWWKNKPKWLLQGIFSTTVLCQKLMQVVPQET
T1 sequence (P08195 102-630 partner): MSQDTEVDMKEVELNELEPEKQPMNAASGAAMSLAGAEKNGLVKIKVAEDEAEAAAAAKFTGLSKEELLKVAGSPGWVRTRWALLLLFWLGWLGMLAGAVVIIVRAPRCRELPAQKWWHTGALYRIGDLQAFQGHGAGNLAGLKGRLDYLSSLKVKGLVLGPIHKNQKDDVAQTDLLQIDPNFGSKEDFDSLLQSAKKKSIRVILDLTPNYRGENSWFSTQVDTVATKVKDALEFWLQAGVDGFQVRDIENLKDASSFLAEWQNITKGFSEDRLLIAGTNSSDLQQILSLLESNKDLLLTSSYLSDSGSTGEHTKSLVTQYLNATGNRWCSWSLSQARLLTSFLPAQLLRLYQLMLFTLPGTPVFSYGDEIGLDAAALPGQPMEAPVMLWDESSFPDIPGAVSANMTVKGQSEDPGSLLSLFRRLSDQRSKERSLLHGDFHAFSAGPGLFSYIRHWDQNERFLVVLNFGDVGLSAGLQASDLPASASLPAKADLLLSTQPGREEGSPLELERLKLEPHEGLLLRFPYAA
T2 sequence (P11275 whole entry): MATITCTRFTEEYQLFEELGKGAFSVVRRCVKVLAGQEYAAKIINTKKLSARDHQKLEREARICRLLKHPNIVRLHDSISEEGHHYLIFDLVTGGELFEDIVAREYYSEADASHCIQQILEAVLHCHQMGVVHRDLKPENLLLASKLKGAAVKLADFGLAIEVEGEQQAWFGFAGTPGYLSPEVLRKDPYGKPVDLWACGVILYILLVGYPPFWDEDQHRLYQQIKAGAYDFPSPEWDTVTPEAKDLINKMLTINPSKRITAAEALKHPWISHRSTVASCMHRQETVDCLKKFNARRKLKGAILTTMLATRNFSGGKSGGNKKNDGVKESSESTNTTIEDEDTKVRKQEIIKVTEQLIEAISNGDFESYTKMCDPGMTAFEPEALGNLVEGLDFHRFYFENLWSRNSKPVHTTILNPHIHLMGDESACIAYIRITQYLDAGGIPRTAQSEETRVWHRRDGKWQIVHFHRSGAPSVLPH

In the case of `N[C@@H](Cc1ccc(NC(=O)Cc2cn3nc(-c4ccc(Cl)cc4)ccc3n2)cc1)C(=O)O` [compound 12, (S)-2-amino-3-(4-(2-(6-(4-chlorophenyl)imidazo[1,2-b]pyridazin-2-yl)acetamido)phenyl)propanoic acid], the “competition with [3H]leucine uptake at LAT-1” value (LAT-1 [1]) is reported as “not”.

For `O=C(O)C1=CC(O)CC1` (stereo not shown) [HOCPCA, 3-hydroxycyclopent-1-enecarboxylic acid], the “affinity relative to GHB” value [2] is given as 27 times.

Compound `COc1ccc(-c2ccc3nc(CC(=O)O)cn3n2)cc1` [compound 6, 2-(6-(4-Methoxyphenyl)imidazo[1,2-b]pyridazin-2-yl)acetic acid] has a Ki [3] of 830 nM.

In the case of `CCOC(=O)Cc1cn2nc(-c3ccc(Cl)cc3)ccc2n1` [1a, ethyl 2-(6-(4-chlorophenyl)imidazo[1,2-b]pyridazin-2-yl)acetate], the “chemical/metabolic stability of prodrug” value [4] is reported as “highly chemical/metabolic unstable”.

In the case of `CC(C)(C)C(=O)OCOC(=O)Cc1cn2nc(-c3ccc(Cl)cc3)ccc2n1` [compound 9, (2-(6-(4-Chlorophenyl)imidazo[1,2-b]pyridazin-2-yl)acetoxy)methyl pivalate], the “chemical/metabolic stability of prodrug” value [4] is reported as “highly chemical/metabolic unstable”.

`O=C(O)Cc1cn2nc(-c3cccc(OCc4ccccc4)c3)ccc2n1` [compound 3] gave a Ki [3] of 510 nM.

`O=C(O)Cc1cn2nc(-c3ccc(Cl)c(Cl)c3)ccc2n1` [compound 7, 2-(6-(3,4-Dichlorophenyl)imidazo[1,2-b]pyridazin-2-yl)acetic acid] gave a Ki [3] of 190 nM.

`COc1cccc(-c2ccc3nc(CC(=O)O)cn3n2)c1` [compound 5, 2-(6-(3-Methoxyphenyl)imidazo[1,2-b]pyridazin-2-yl)acetic acid] gave a Ki [3] of 440 nM.

With `CC(C)(C)OC(=O)Cc1cn2nc(-c3ccc(Cl)cc3)ccc2n1` [compound 10, tert.Butyl 2-(6-(4-chlorophenyl)imidazo[1,2-b]pyridazin-2-yl)acetate] the Kp at 30 min (in vivo) was 2.24, the “stability in liver microsomes” value [5] was “high stability” and the “displacement of radioligand binding” value ([3]; [3H]NCS-382, concentrations up to 10 µM) was “failed to displace radioligand binding”. The half-life at 5 µM ([6]; pH 7.4) was about 1 h and the stability in plasma [6] was “fair stability”.

In the case of `O=C(O)CCC(O)c1ccc(OCc2ccccc2)cc1` (stereo not shown) [BnOPh-GHB], the “affinity relative to GHB” value [2] is given as 39 times.

In the case of `CC(=O)OCOC(=O)Cc1cn2nc(-c3ccc(Cl)cc3)ccc2n1` [compound 8, Acetoxymethyl 2-(6-(4-chlorophenyl)imidazo[1,2-b]pyridazin-2-yl)acetate], the “chemical/metabolic stability of prodrug” value [4] is reported as “highly chemical/metabolic unstable”.

For `O=C(O)Cc1cn2nc(-c3ccc(OCc4ccccc4)cc3)ccc2n1` [compound 4, 2-(6-(4-(benzyloxy)phenyl)imidazo[1,2-b]pyridazin-2-yl)acetic acid], the Ki [3] was 2200 nM.

In the case of `O=C(O)Cc1cn2nc(-c3cccc(Cl)c3)ccc2n1` [compound 2, 2-(6-(3-Chlorophenyl)imidazo[1,2-b]pyridazin-2-yl)acetic acid], the Ki [3] is reported as 230 nM.

For `N[C@@H](Cc1cccc(NC(=O)Cc2cn3nc(-c4ccc(Cl)cc4)ccc3n2)c1)C(=O)O` [compound 11, (S)-2-amino-3-(3-(2-(6-(4-chlorophenyl)imidazo[1,2-b]pyridazin-2-yl)acetamido)phenyl)propanoic acid], the “competition with [3H]leucine uptake at LAT-1” value (LAT-1 [1]) was “LAT1 inhibitor; also recorded: competes” and the “exchange for [3H]leucine (relative exchange efflux)” value (LAT-1 [7]) was “cannot be exchanged”.
